These results are taken from US20260183253A1, “TREATING LIVER CANCERS WITH HYDROXYUREAMETHYL ACYLFULVENE” (Lantern Pharma Inc., priority 2023, published 2026).

In this experiment the test system is liver cancer cell lines including SNU387, SNU475, SNU449, and HEPG2. The experiment can be described thus: Cell viability, CellTiter-Fluor assay, 72 h treatment. Particulars: values shown only in FIG. 1. The class given is cell-based. How it is done: Liver cancer cell lines including SNU387, SNU475, SNU449, and HEPG2, were obtained from the American Type Culture Collection (ATCC), ensuring standardized and reliable cell sources. […] Cells were seeded into 96-well plates at a density optimized for exponential growth, allowing sufficient space for cellular proliferation during the course of the experiment. Each well was seeded with an equal number of cells to ensure consistency across the experiment. Following seeding, cells were allowed to adhere and acclimatize for 24 hours at 37° C. in a humidified incubator with 5% CO2, maintaining optimal growth conditions. Once acclimated, the cells were treated with either a vehicle control (DMSO) or varying concentrations of LP-184. […]
Following the 72-hour treatment period, cell viability was assessed using the CellTiter-Fluor® assay from Promega, a sensitive fluorescence-based assay that quantifies the number of viable cells based on the presence of active cellular proteases. […]
The plates were then incubated for an additional 30 minutes at 37° C. to allow the enzymatic reaction to occur, resulting in the cleavage of the fluorogenic substrate by viable cells. […] The fluorescence signal was measured using a plate reader set to an excitation wavelength of 400 nm and an emission wavelength of 505 nm, parameters optimized for the GF-AFC substrate. […]

`CC1=C(CN(O)C(N)=O)C2=C(C)C3(CC3)[C@@](C)(O)C(=O)C2=C1` [LP-184, (−)-hydroxyureamethyl acylfulvene]: the “IC50 (nM) against various liver cancer cell lines” value is recorded as “nanomolar potency”.
